Source: publication PMC8839660, “Structural Refinement of 2,4-Thiazolidinedione Derivatives as New Anticancer Agents Able to Modulate the BAG3 Protein” (Molecules, 2022)

Columns and labels:
[1] = tested on: human melanoma cell line (A375); test: MTT cell viability assay, A375; format: cell-based; settings: 5–50 µM; for IC50: Homo sapiens, A-375, 48 h, read-out: A375 Cell Line IC50 ± SD; for A375 Cell Line IC50 ± SD: 48 h
Method: (§1) Firstly, the antiproliferative activity of lead compound 1, 2 and 5–9 against selected human cell lines was assessed. No effect on human PHA (Phytohaemagglutinin)-stimulated proliferating non-tumor human cell line (PMBC) has been detected for compound 1 tested at different concentrations (10–50 μM) after 72 h of exposure. In more detail, all the synthesized compounds have been tested on human melanoma cancer A375 and HeLa cancer cell lines, which are known to overexpress BAG3 protein, by an MTT cell viability assay, using different concentrations (5–50 μM). The IC50 values have been calculated after 48 h of treatment with test compounds (Table 2).
(§2) Cell lines of human cervical carcinoma (HeLa) and human malignant melanoma (A375) were cultured in Dulbecco’s modified Eagle’s medium containing 10% fetal bovine serum, supplemented with 100 U/mL each of penicillin and streptomycin, and 2 mM/L glutamine and were grown at 37 °C under 5% CO2 air humidified atmosphere.
(§3) Cell viability was evaluated using a colorimetric assay based on MTT ((3-(4,5-dimethylthiazol-2-yl)-2,5-diphenyltetrazolium bromide)) assay. Cells were grown in 96-well tissue culture plates (3,5 × 10^3 cells/well) and after 24 h, were treated with different concentrations of 1, 2 and 5–9 (50, 25, 10, and 5 µM) and incubation was performed for 48 h at 37 °C in an atmosphere containing 5% CO2. At the end of treatment, the plates were centrifuged at 1200 rpm for 5 min, the medium was removed and 100 μL of MTT (1 mg/mL) were added to each well, and cells were incubated at 37 °C for the time necessary to allow the formation of purple formazan precipitate. The solution was then removed from each well, and the formazan crystals within the cells were dissolved with 100 μL of DMSO [31]. The optical density (OD) of each well was measured with a microplate spectrophotometer (Multiskan Spectrum Thermo Electron Corporation reader) (Thermo Fisher Scientific, Rome, Italy) equipped with a 620-nm filter. Cell mortality was calculated as: % mortality = 100 − [100 × (OD treated/OD control)] [32].

[2] = target: Human recombinant BAG3 (rBAG3) protein full length (Homo sapiens, UniProt O95817); test: SPR assay on recombinant full-length BAG3; settings: for rBAG3 KD ± SD: SPR, full-length protein, 25 °C, n.b. = no binding
Sequence of Human recombinant BAG3 (rBAG3) protein full length (O95817 whole entry): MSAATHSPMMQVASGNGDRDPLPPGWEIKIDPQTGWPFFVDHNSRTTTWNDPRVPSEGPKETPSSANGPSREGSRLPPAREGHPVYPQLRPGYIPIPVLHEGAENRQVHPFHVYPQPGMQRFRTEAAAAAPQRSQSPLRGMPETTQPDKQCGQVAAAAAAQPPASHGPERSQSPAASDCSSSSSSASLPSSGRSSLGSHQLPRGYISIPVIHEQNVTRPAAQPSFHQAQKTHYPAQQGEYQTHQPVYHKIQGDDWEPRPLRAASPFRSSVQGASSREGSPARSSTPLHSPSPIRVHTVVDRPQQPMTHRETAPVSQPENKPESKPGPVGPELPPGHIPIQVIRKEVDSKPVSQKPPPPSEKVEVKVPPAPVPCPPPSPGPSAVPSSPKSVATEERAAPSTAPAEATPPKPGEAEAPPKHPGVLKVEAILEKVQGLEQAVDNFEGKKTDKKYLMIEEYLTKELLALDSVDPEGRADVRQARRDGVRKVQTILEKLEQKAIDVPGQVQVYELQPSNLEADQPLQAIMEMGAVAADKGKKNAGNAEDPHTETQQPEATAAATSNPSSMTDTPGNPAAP
Method: (§9) A surface plasmon resonance (SPR) assay [18], using a recombinant BAG3 protein, was performed and, to explore the potential selectivity of our potential binders, the affinity for BAG4—the most closely BAG3 related protein—was also evaluated. Moreover, the binding affinity towards the BAG3BD domain was also assessed.
(§10) The SPR analysis were performed on Biacore 3000^TM equipped with a research-grade CM5 sensor chip (GE Healthcare^TM, Milan, Italy). Human recombinant BAG3 (rBAG3) protein was purchased from MyBioSource© (San Diego, CA, USA), BAG3 domain (rBAG3BD) was purchased from ARETA International S.r.l. […] The proteins were coupled to the surface of a CM5 sensor chip using standard amine-coupling protocols, according to the manufacturer’s instructions. Three separates recombinant rBAG proteins surfaces and one unmodified reference surface were prepared for simultaneous analyses. rBAG proteins (BAG3 and BAG4) and rBAG3BD (100 µg mL^−1 in 10 mM CH3COONa, pH 4.5) were immobilized on the sensor chip surface at a flow rate of 5 µL min^−1 to obtain densities of 5–9 kRU. […] For each molecule, a six-point concentration series was conducted in triplicate (0-0.25-1-10-20-100 µM). SPR (Surface Plasmon Resonance) experiments were performed at 25 °C, using a flow rate of 10 µL min^−1, with 60-s monitoring of association and 300-s monitoring of dissociation. Sensorgram elaborations were performed using the BIAevaluation software (GE Healthcare^TM, Milan, Italy). provided by GE Healthcare^TM. Simple interactions were suitably fitted to a single-site bimolecular interaction model (A + B = AB), yielding a single KD.

[3] = target: T1, human recombinant BAG4 protein (Homo sapiens, UniProt O95429); test: SPR assay on BAG4 (selectivity); settings: 25 °C, n.b. = no binding
T1 sequence (O95429 1-457): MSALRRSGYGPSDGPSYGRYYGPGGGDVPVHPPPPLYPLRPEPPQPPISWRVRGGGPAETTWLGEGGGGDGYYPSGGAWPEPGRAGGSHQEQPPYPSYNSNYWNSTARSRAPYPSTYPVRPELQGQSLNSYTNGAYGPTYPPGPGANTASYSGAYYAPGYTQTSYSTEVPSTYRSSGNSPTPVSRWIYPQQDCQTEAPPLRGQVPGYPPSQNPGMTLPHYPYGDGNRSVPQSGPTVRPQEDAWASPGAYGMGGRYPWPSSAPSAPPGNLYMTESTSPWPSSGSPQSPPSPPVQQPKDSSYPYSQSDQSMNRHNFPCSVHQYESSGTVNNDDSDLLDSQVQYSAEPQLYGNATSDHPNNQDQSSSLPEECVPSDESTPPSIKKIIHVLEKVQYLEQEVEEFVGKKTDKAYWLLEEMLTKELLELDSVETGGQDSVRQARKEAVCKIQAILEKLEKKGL
Method: as §9, §10

BAG3 domain (rBAG3BD) = target: T2, BAG3 domain (rBAG3BD) (Homo sapiens, UniProt O95817); test: SPR assay on isolated BAG3 BAG domain; settings: for rBAG3BD KD ± SD: SPR, isolated BAG domain, 25 °C, n.b. = no binding
T2 sequence (O95817 421-498 limits assumed): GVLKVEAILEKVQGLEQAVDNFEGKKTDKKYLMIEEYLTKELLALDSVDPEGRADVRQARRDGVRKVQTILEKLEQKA
Method: as §9, §10

[4] = tested on: human cervical adenocarcinoma cell line (HeLa); test: MTT cell viability assay, HeLa; format: cell-based; settings: 48 h, 5–50 µM; for IC50: Homo sapiens, HeLa, read-out: HeLa Cell Line IC50 ± SD
Method: as §1, §2, §3

HeLa cells = test: Apoptosis and cell cycle analysis by PI staining and flow cytometry, HeLa; format: cell-based, human; settings: 5-10-25 μM, 48 h
Method: (§4) The cells were incubated for 48 h with 1 and 6 at concentrations 5-10-25μM.
(§5) The effect of compound 1 and 6 on cell death was analyzed by propidium iodide (PI) (Merck, Darmstadt, Germany) incorporation in permeabilized cells and flow cytometry. Briefly, cells were plated at a density of 2 × 10^4 cells/well in a 24-well plate. After 24 h, 1 and 6 (25-10-5 μM) were added for 48 h. Cells were washed twice with PBS and incubated in 500μL of a solution containing 0.1% Triton X-100, 0.1% sodium citrate, and […] propidium iodide (PI), at 4 °C for 30 min in the dark. The PI-stained cells were subsequently analyzed by flow cytometry by FACSCalibur flow cytometer (Becton Dickinson, Milan, Italy) using CellQuest software (4.0, Becton Dickinson, North Ryde, NSW, Australia). Results are expressed as the percentage of cells in the hypodiploid region. Cellular debris were excluded from the analysis by raising the forward scatter threshold and the DNA content of the nuclei was registered on a logarithmic scale. Cell cycle profiles were evaluated by DNA staining with a PI solution using a flow cytometer. Results from 5000 events per sample were collected, and the relative percentage of the cells in G0/G1, S, G2/M, and sub-G0/G1 phases of the cell cycle was determined using the ModFit LT version 3.3 analysis software (BD Biosciences, North Ryde, NSW, Australia).
Figure 4 Cell cycle analysis: (a) DNA content and (b) hypodiploid nuclei, with propidium iodide staining, were evaluated by flow cytometric assay. HeLa cells were treated with 6 (5-10-25 μM) for 48 h. Results are expressed as mean ± S.E.M. of three independent experiments each performed in duplicate. Data were analyzed by Student’s t-test. * p < 0.05 and ** p < 0.005 vs. non-treated.

A375 cells = test: Apoptosis and cell cycle analysis by PI staining and flow cytometry, A375; format: cell-based, human; settings: 5-10-25 μM, 48 h
Method: as §4, §5
Figure 3 Cell cycle analysis: (a) DNA content and (b) hypodiploid nuclei, with propidium iodide staining, were evaluated by flow cytometric assay. A375 cells were treated respectively with 1 or 6 (both 5-10-25 μM) for 48 h. Results are expressed as mean ± S.E.M. of three independent experiments, each performed in duplicate. Data were analyzed by Student’s t-test. * p < 0.05 and ** p < 0.005 vs. non-treated.

A549 = tested on: A549; design: method as in PMID 29926854; settings: A549 cells; read-out: antiproliferative activity IC50, A549; cited from earlier work
[5] = tested on: human PHA (Phytohaemagglutinin)-stimulated proliferating non-tumor human cell line (PMBC); design: method as in PMID 29926854; settings: 10–50 μM, 72 h of exposure; cited from earlier work
PC3 = tested on: PC3; design: method as in PMID 29926854; settings: PC3 cells; read-out: antiproliferative activity IC50, PC3; cited from earlier work
BAG3 = BAG3 expression by Western blotting in HeLa cells; format: cell-based, human; settings: 5-10-25 μM, 48 h
Method: Figure 6 HeLa cells were treated with 6 (5-10-25 μM) for 48 h. BAG3 expression was detected by Western blotting. Tubulin protein expression was used as a loading control. Results are expressed as mean ± S.E.M. from at least three independent experiments each performed in duplicate. Data were analyzed by Student’s t test vs. non-treated.

caspase 3 = test: Caspase 3 level by flow cytometry in HeLa cells; format: cell-based, human; settings: 5-10-25 μM, 48 h
Method: (§6) Furthermore, the expression of caspases, the key mediators of programmed cells death, was examined in HeLa cells after the treatment with compound 6.
(§7) Cells were plated into 12-well plated (2 × 10^4 cells/well) and after 24 h were treated with 6 (50-25-10-5 µM) for 48 h to assess caspase 3 and caspase 9 levels. Cells were collected, washed with PBS, then incubated in fixing buffer (containing 4% formaldehyde, 0.1% NaN3, and 2% FBS in PBS) for 20 min and then permeabilized with fix perm solution (fixing buffer containing 0.1% Triton X) for 30 min. Afterward, anti-caspase 3 or anti-caspase 9 antibodies were added for a further 30 min. Cells were then incubated with anti-rabbit Texas Red antibody as a secondary antibody for 1 h at 4 °C. Cell fluorescence was evaluated using a fluorescence-activated cell sorter (FACSscan; Becton Dickinson, Milan, Italy) and analyzed with the Cell Quest software (4.0, Becton Dickinson, North Ryde, NSW, Australia). Data were shown as a percentage of positive cells.
(§8) Figure 5 (a) Caspase 3 and (b) caspase 9 expressions were detected by flow cytometric analysis. HeLa cells were treated with 6 (5-10-25 μM) for 48 h. Results are expressed as mean ± S.E.M. from at least three independent experiments each performed in duplicate. Data were analyzed by Student’s t-test. *** p < 0.0001 vs. non-treated.

caspase 9 = test: Caspase 9 level by flow cytometry in HeLa cells; format: cell-based, human; settings: 5-10-25 μM, 48 h
Method: as §6, §7, §8

| Compound | IC50 [1] [µM] | Kd [2] [µM] | rBAG4 KD ± SD [3] | Kd (BAG3 domain (rBAG3BD)) [µM] | IC50 [4] [µM] | A375 Cell Line IC50 ± SD [1] | HeLa Cell Line IC50 ± SD [4] | further results |
| --- | --- | --- | --- | --- | --- | --- | --- | --- |
| COC(=O)CN1C(=O)S/C(=C\c2ccc(N(CCO)CCO)cc2)C1=O [Compound 7, (Z)-methyl 2-(5-(4-(bis(2-hydroxyethyl)amino)benzylidene)-2,4-dioxothiazolidin-3-yl) acetate] | > 50 | 0.0531 ± 0.0091 | n.b. | 0.0457 ± 0.0017 | 49.4 ± 1.4 | – | – | – |
| O=C(CN1C(=O)S/C(=C\c2cc(O)cc(O)c2)C1=O)N1CCOCC1 [Compound 5, (Z)-5-(3,5-dihydroxybenzylidene)-3-(2-morpholino-2-oxoethyl) thiazolidine-2,4-dione] | 25.5 ± 1.1 | – | n.b. | – | 30 ± 1.3 | micromolar range | micromolar range | – |
| CCOC(=O)CN1C(=O)S/C(=C\c2ccc(O)c(O)c2)C1=O [Compound 1, reference compound] | 15.1 ± 0.9 | 0.0111 ± 0.0039 | n.b. ^a | 0.0064 ± 0.0022 | > 50 | – | – | cell cycle distribution (G2 phase), HeLa (HeLa cells): no evident effect; apoptotic response (hypodiploid nuclei), A375 (A375 cells): dose-dependent increase in hypodiploid nuclei; cell cycle distribution (G2 phase), A375 (A375 cells): accumulation in the G2 phase; IC50 (A549): 32.3 ± 0.9 µM; effect on PHA-stimulated proliferating non-tumor cells [5]: No effect; IC50 (PC3): 48.1 ± 1.5 µM |
| CCOC(=O)CN1C(=O)S/C(=C\c2cc(O)cc(O)c2)C1=O [Compound 3, (Z)-ethyl 2-(5-(3,5-dihydroxybenzylidene)-2,4-dioxothiazolidin-3-yl) acetate] | – | – | – | – | – | – | – | rBAG3 KD ± SD [2]: n.b. |
| CCOC(=O)CN1C(=O)S/C(=C\c2ccc(-c3ccc(C#N)cc3)cn2)C1=O [Compound 8, (Z)-ethyl 2-(5-((5-(4-cyanophenyl)pyridin-2-yl)methylene)-2,4-dioxothiazolidin-3-yl) acetate] | 23.2 ± 1 | 0.144 ± 0.0015 | n.b. | – | 25.9 ± 0.8 | micromolar range | micromolar range | rBAG3BD KD ± SD (BAG3 domain (rBAG3BD)): n.b. |
| CCOC(=O)CN1C(=O)S/C(=C\c2ccc(N(CCO)CCO)cc2)C1=O [Compound 6, (Z)-ethyl 2-(5-(4-(bis(2-hydroxyethyl)amino)benzylidene)-2,4-dioxothiazolidin-3-yl) acetate] | 19.4 ± 1.2 | 0.0063 ± 0.0003 | n.b. | 0.0276 ± 0.0019 | 18.7 ± 0.9 | micromolar range | micromolar range | apoptotic response (hypodiploid nuclei), HeLa (HeLa cells): significant increase of the apoptotic response in a dose-dependent manner; cell cycle distribution (G2 phase), HeLa (HeLa cells): dose-dependent accumulation in the G2 phase; apoptotic response (hypodiploid nuclei), A375 (A375 cells): significant increase of the apoptotic response in a dose-dependent manner; cell cycle distribution (G2 phase), A375 (A375 cells): dose-dependent accumulation in the G2 phase; BAG3 expression (BAG3): expression decrease of BAG3; caspase 3 levels (caspase 3): significant and dose-dependent activation; caspase 9 levels (caspase 9): significant and dose-dependent activation |
| COC(=O)CN1C(=O)S/C(=C\c2ccc(O)c(O)c2)C1=O [Compound 2, (Z)-methyl 2-(5-(3,4-dihydroxybenzylidene)-2,4-dioxothiazolidin-3-yl) acetate] | > 50 | 0.115 ± 0.0014 | n.b. | – | 27.3 ± 1.2 | – | – | rBAG3BD KD ± SD (BAG3 domain (rBAG3BD)): n.b. |
| COC(=O)CN1C(=O)S/C(=C\c2cc(O)cc(O)c2)C1=O [Compound 4, (Z)-methyl 2-(5-(3,5-dihydroxybenzylidene)-2,4-dioxothiazolidin-3-yl) acetate] | – | – | – | – | – | – | – | rBAG3 KD ± SD [2]: n.b. |
| COC(=O)CN1C(=O)S/C(=C\c2ccc(-c3ccc(C#N)cc3)cn2)C1=O [Compound 9, (Z)-methyl 2-(5-((5-(4-cyanophenyl)pyridin-2-yl)methylene)-2,4-dioxothiazolidin-3-yl) acetate] | 28.4 ± 0.9 | 0.0247 ± 0.0018 | n.b. | 0.0224 ± 0.0007 | 31.3 ± 1 | micromolar range | micromolar range | – |
